Data reported in patent US20060166906A1, “6-O-substituted erythromycin derivatives having improved gastrointestinal tolerance” (priority 2001, published 2006).

Tested on: conscious ferrets
Test: Gastrointestinal tolerability study: nausea and emesis in conscious ferrets
Format: in vivo, ferret
Conditions: observed 90 minutes; for % Emesis: oral gavage 30 mg/kg in 2 mL ethanol and 4 mL water, vomiting ferrets / animals dosed; for Nausea Score: oral gavage 30 mg/kg, mean number of nausea behaviors (up to five) per animal
Experimental: Example 3 and three reference compounds were investigated for their ability to produce nausea and emesis in conscious ferrets using the method as described in Drugs, 53(2), 206-234 (1997) and Cancer Treat. Rep., 66(1), 187-189 (1982). Each compound was administered to 6 ferrets by oral gavage at 30 mg/kg in 2 mL of ethanol and 4 mL of water. […] Nausea was preceded by up to five of the following behaviors in the ferret: licking, down, flop, backing, and gag. […] The mean nausea score for a compound is the total number of nausea behaviors divided by the number of animals given the compound. Percent emesis is the total number of vomiting ferrets divided by the number of animals administered the compound.

Compound: CC[C@H]1OC(=O)[C@H](C)[C@@H](O[C@H]2C[C@@](C)(OC)[C@@H](O)[C@H](C)O2)[C@H](C)[C@@H](O[C@@H]2O[C@H](C)C[C@H](N(C)C)[C@H]2O)[C@](C)(OC)C[C@@H](C)C(=O)[C@H](C)[C@@H](O)[C@]1(C)O [Clarithromycin]
- % Emesis: 83%
- Nausea Score: 1.4

Compound: CC[C@H]1OC(=O)[C@H](C)[C@@H](O[C@H]2C[C@@](C)(OC)[C@@H](O)[C@H](C)O2)[C@H](C)[C@@H](O[C@@H]2O[C@H](C)C[C@H](N(C)C)[C@H]2O)[C@](C)(O)C[C@@H](C)C(=O)[C@H](C)[C@@H](O)[C@]1(C)O [Erythromycin]
- % Emesis: 67%
- Nausea Score: 1.2

Compound: CC[C@H]1OC(=O)[C@H](C)C(=O)[C@H](C)[C@@H](O[C@@H]2O[C@H](C)C[C@H](N(C)C)[C@H]2O)[C@](C)(OC)C[C@@H](C)C(=O)[C@H](C)[C@H]2N(CCCCn3cnc(-c4cccnc4)c3)C(=O)O[C@]12C [Telithromycin]
- % Emesis: 50%
- Nausea Score: 1.8
